Laboratory results as given in patent publication US9637507B2, “Process for the preparation of liquid tin(II) alkoxides” (CHIANG MAI UNIVERSITY, priority 2012, dated 2017).

Columns and labels:
[1] = literature solids; cited from earlier work
[2] = Storage of liquid tin(II) alkoxides under nitrogen or argon; conditions: stored under a nitrogen or argon atmosphere
[3] = Solubility test of tin(II) alkoxides in organic solvents; type: physicochemical; conditions: liquid tin(II) alkoxides; temperature range of 25-38° C.

Molecule: CC[O][Sn][O]CC [Tin(II) ethoxide, reference compound]
- Stability (moisture, oxygen, colour change) [1]: turned yellow rapidly, even when the product was dried and kept under vacuum

Molecule: CCCC[O-].CCCC[O-].[Sn+2] [Tin(II) n-butoxide, tin(II) n-butoxide]
- Stability (moisture, oxygen, colour change) [1]: extremely moisture and oxygen sensitive
- Storage stability (reactivity) [2]: without any significant effect on their reactivity

Molecule: tin(II) n-hexoxide
- Solubility in common organic solvents [3]: soluble in common organic solvents

Molecule: tin(II) n-octoxide
- Solubility in common organic solvents [3]: soluble in common organic solvents
